Data published in patent US9115092B2, “Substituted quinazoline and pyrido-pyrimidine derivatives” (Asana Biosciences, LLC, priority 2010, dated 2015).

Experiments:
[1] = test system: pAKT(T308) (phosphorylated at threonine 308), PC3 cells; assay: In-cell Western assay, pAKT(T308) in PC3 cells; type: cell-based; conditions: Homo sapiens, PC-3, In-cell Western
In short: (§1)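 Overnight-seeded PC3 cells were treated 2 h with serially diluted compound, then fixed and immunostained with phospho-specific primary antibodies and Eu-labelled secondary. Time-resolved Eu signal read at 615 nm (ex 340 nm), normalised by Hoechst 33258 staining (ex 355/em 460 nm); IC50 from sigmoidal dose-response fit.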

[2] = test system: pS6RP(S235/236), PC3 cells; assay: In-cell Western assay, pS6RP(S235/236) in PC3 cells; type: cell-based, human
In short: as §1

pAKT(5473) in PC3 tumor = assay: In vivo PK/PD study, PC3 tumor bearing mice, pAkt(5473); conditions: Mus musculus, 50 mg/kg po single dose
Procedure: (§2) PC3 cells were cultured at 37° C. in a 5% CO2 incubator using Hams F12 K medium. Ten million (10^7) cells were injected subcutaneously to the right flank region of athymic male mice (Harlan, age: 6-7 weeks, weight: about 20 g). Tumor bearing mice were randomized when the tumor volume reached about 250 mm^3 and three mice were used per each time point. Test compounds of formula (I) were formulated in 40% HPCD in 1×PBS, pH 7.4 and dosed orally at 50 mg/kg single dose (dose volume−10 mL/kg). Plasma and tumor samples were collected at 0 (vehicle control animals), 1, 4 and 24 hours post dosing. Blood was drawn (retro orbital) to a tube containing 0.2% EDTA for plasma collection. The tumor was excised from the mouse and immediately frozen in liquid nitrogen for PD analysis. Tumor and plasma drug concentrations were measured for PK analysis using LC-MS.
(§3) Snap frozen tumor samples were pulverized in a mortar (Belart) containing liquid nitrogen and tumor powder was stored at −80° C. until analysis. Pre coated ELISA kits (Cell Signaling Technology; pAKT(T308), CST#7135; pAKT(5473), CST#7134 and pS6RP, CST#7205) were used for PD analysis. Tumor powder was transferred to Eppendorf® tubes and lysis buffer (1 mL) was added to the powder. […] The detection for pAKT was based on chemiluminescence and pS6RP was based on absorbance. […]

[3] = test system: pAkt(5473) in BT474 tumor; assay: In vivo PK/PD study, BT474 tumor-bearing xenograft mice, pAkt(5473); conditions: 2 weeks at 40 mg/kg bid po
Procedure: as §2
(§4) Snap frozen tumor samples were pulverized in a mortar (Belart) containing liquid nitrogen and tumor powder was stored at −80° C. until analysis. […] The detection for pAKT was based on chemiluminescence and pS6RP was based on absorbance. […]
(§5) In vivo pharmacokinetic/pharmacodynamic (PK/PD) studies were also carried out using BT474 tumor cells and the corresponding tumor-bearing xenograft mice, and compounds of the invention were determined to be active in this assay. […]

[4] = test system: pAkt(T308) in BT474 tumor; assay: In vivo PK/PD study, BT474 tumor-bearing xenograft mice, pAkt(T308); conditions: 2 weeks at 40 mg/kg bid po
Procedure: as §2, §4, §5

pAKT(T308) in PC3 tumor = assay: In vivo PK/PD study, PC3 tumor bearing mice, pAkt(T308) Western blot; conditions: 50 mg/kg po, at 8 hours
Procedure: as §2, §3

[5] = Homo sapiens, PC-3, In-cell Western

| IC50 [1] | IC50 [2, 5] | IC50 ([2]; In-cell Western) | Compound | inhibition at 50 mg/kg (pAKT(5473) in PC3 tumor; at 1 and 4 hours) | suppression of pAkt(5473) in tumor tissue samples by Western blot [3] | suppression of pAkt(T308) in tumor tissue samples by Western blot [4] | inhibition at 50 mg/kg (pAKT(5473) in PC3 tumor; at 4 and 24 hours) | suppression of pAkt(T308) by Western blot analysis (pAKT(T308) in PC3 tumor) |
| --- | --- | --- | --- | --- | --- | --- | --- | --- |
| < 100 nM | 201 to 10000 nM | – | CN(C)C(=O)c1ccc(NC(=O)Nc2ccc(-c3nc(N4CCOCC4)c4ccc(-c5cncnc5)cc4n3)cc2)c(F)c1 [Example 133, 3-fluoro-N,N-dimethyl-4-(3-(4-(4-morpholino-7-(pyrimidin-5-yl)quinazolin-2-yl)phenyl)ureido)-benzamide] | – | – | – | – | significant suppression |
| < 100 nM | – | – | CN(C)C(=O)c1ccc(NC(=O)Nc2ccc(-c3nc(N4CCOCC4)c4ccc(-c5cccnc5F)cc4n3)cc2)c(F)c1 [Example 146, 3-fluoro-4-(3-(4-(7-(2-fluoropyridin-3-yl)-4-morpholino-quinazolin-2-yl)phenyl)ureido)-N,N-dimethyl-benzamide] | – | – | – | – | significant suppression |
| < 100 nM | – | – | CN(C)C(=O)c1ccc(NC(=O)Nc2ccc(-c3nc(N4CCOCC4)c4ccc(-c5cccnc5)cc4n3)cc2)c(F)c1 [Example 152, 3-fluoro-N,N-dimethyl-4-(3-(4-(4-morpholino-7-(pyridin-3-yl)quinazolin-2-yl)phenyl)ureido)-benzamide] | – | – | – | – | – |

Second part, the compound before the results:

| Compound | IC50 [1] | IC50 [2, 5] | IC50 ([2]; In-cell Western) | inhibition at 50 mg/kg (pAKT(5473) in PC3 tumor; at 1 and 4 hours) | suppression of pAkt(5473) in tumor tissue samples by Western blot [3] | suppression of pAkt(T308) in tumor tissue samples by Western blot [4] | inhibition at 50 mg/kg (pAKT(5473) in PC3 tumor; at 4 and 24 hours) | suppression of pAkt(T308) by Western blot analysis (pAKT(T308) in PC3 tumor) |
| --- | --- | --- | --- | --- | --- | --- | --- | --- |
| CN(C)C(=O)c1ccc(NC(=O)Nc2ccc(-c3nc(N4CCOCC4)c4ccc(-c5cncnc5)cc4n3)cc2)cc1 [Example 1, N,N-Dimethyl-4-(3-{4-[4-morpholin-4-yl-7-pyrimidin-5-yl-quinazolin-2-yl)-phenyl]-ureido}-benzamide] | 501 to 5000 nM | < 100 nM | – | ~50% | – | – | – | – |
| Cc1ccc(-c2ccc3c(N4CCOCC4)nc(-c4ccc(NC(=O)Nc5ccc(C(=O)N(C)C)cc5)cc4)nc3c2)o1 [Example 2, N,N-Dimethyl-4-(3-{4-[7-(5-methyl-furan-2-yl)-4-morpholin-4-yl-quinazolin-2-yl]-phenyl}-ureido)-benzamide] | 100 to 500 nM | 100 to 500 nM | – | – | significant suppression | significant suppression | 25 to 30% | – |
| CN(C)C(=O)c1ccc(NC(=O)Nc2ccc(-c3nc(N4CCOCC4)c4ccc(-c5ccco5)cc4n3)cc2)cc1 [Example 51, 4-{3-[4-(7-furan-2-yl-4-morpholin-4-yl-quinazolin-2-yl)-phenyl]-ureido}-N,N-dimethyl-benzamide] | – | – | 501 to 5000 nM | – | significant suppression | significant suppression | – | – |
